Columns and labels:
[1] = test system: KLK2, PSA (KLK3), PAP (ACPP), HOXB13, and NKX3-1; test: IFN-γ ELISPOT of splenocytes restimulated with mRNA-electroporated BMDCs after RNA(LIP) vaccination; assay type: in vivo, A2/DR1 mice; details: 30 μg of each antigen RNA complexed with liposomes, IV, four to five vaccinations, R&D-quality RNA
Protocol: FIG. 18: Vaccination with W_pro1 antigen RNAs leads to antigen-specific T-cell responses. Splenocytes of intravenously vaccinated A2/DR1 mice (n=4-5/group) were restimulated for 20 h with BMDCs electroporated with the corresponding mRNAs as indicated. BMDCs electroporated with irrelevant mRNA were used as control (open symbols, grey bars). Effector function was measured using an IFN-γ ELISPOT assay. Symbols indicate mean values of triplicate wells from individual animals. Bars indicate median of all animals per group.
To obtain more information about the in vivo induction of antigen-specific T cells by the prostate specific antigens KLK2, PSA (KLK3), PAP (ACPP), HOXB13, and NKX3-1, RNA(LIP) products were prepared using RNA of R&D quality and liposomes of GMP-like quality. The RNA(LIP) products were injected intravenously into transgenic mice manipulated to express the human leukocyte antigens HLA-A*0201 and -DRB1*01. Using these mice the priming and expansion of T cells specific for HLA-restricted epitopes can be examined in vivo. A2/DR1 mice were vaccinated four to five times by injection of 30 μg of each antigen RNA complexed with liposomes, followed by isolation of spleen cells (5 days after last vaccination). The priming efficiency of the test items was evaluated by IFN-γ ELISPOT assay after restimulation with bone marrow derived dendritic cells (BMDC) electroporated with the respective mRNA or unrelated control mRNA.

[2] = test system: KLK2, KLK3 (PSA), ACPP (PAP), NKX3-1 or HOXB13; test: IFN-γ ELISPOT of splenocytes restimulated with peptide pools (Example 3); assay type: in vivo, A2/DR1 mice; details: 30 μg RNA(Lip) days 1, 8, 15, 22; splenocytes five days after final injection; unpaired t test
Excerpt: IFN-γ ELISPOT analysis of T-cell effectors from the spleen of mice immunized with lipoplex-formulated RNA coding for KLK2(aa 1-261), KLK3(aa 1-261), ACPP(aa 1-418), HOXB13(aa 1-284) or NKX3-1(aa 1-234). Splenocytes obtained five days after the final immunization were re-stimulated with either a peptide pool spanning the respective human protein, P2/P16/P17 peptides or with an irrelevant control peptide CMV pp65(495-504). Dots represent individual animals; horizontal bars indicate the mean±SD of the three animals.
At day 1, day 8, day 15, and day 22 A2/DR1 mice were immunized with 200 μL of a 0.15 mg/mL RNA(Lip) solution which corresponds to 30 μg RNA(Lip).
Splenocytes were obtained from the immunized A2/DR1 mice five days after the final of four RNA(Lip) injections, and in vivo induction ofantigen-specificTcells was determined by ELISPOT analysis. To test for the immunogenicity, isolated splenocytes were re-stimulated with a peptide pool (15 mers, overlapping by 11 amino acids) spanning the respective human proteins, KLK2, KLK3 (PSA), ACPP (PAP), NKX3-1 or HOXB13. […] On all ELISPOT plates, the negative control medium alone induced only a minimal spot count regardless of the animal the splenocytes had been derived from.

[3] = test system: KLK2, PSA (KLK3), PAP (ACPP), HOXB13, and NKX3-1; test: IFN-γ ELISPOT of splenocytes restimulated with mRNA-electroporated BMDCs after RNA(LIP) vaccination; assay type: in vivo, A2/DR1 mice; details: RNAs manufactured under GMP-conditions; study will be performed
[4] = Respiratory safety (plethysmography) within GLP repeated dose toxicity studies (LPT No. 28864, 30283); assay type: in vivo, mice; details: positive control, 30 mg/kg b.w.
Protocol: Respiratory safety was included in repeated dose toxicity studies in mice using RNA DPs coding for TAAs in compliance with GLP (LPT No. 28864 and 30283, for study design see below). For example, plethysmography was tested in the study with RNA(LIP) (LPT No. 30283) with four animals/sex/group treated either with control buffer, a low and a high dose (5 and 50 μg of RNA formulated with 9 μg and 90 μg of liposomes, respectively). A positive control of animals treated with 30 mg Carbamyl-β-methylcholine chloride (bethanecol)/kg b.w. was also included. Plethysmography was performed one day after the 4th to 7th dosing. The tests included the evaluation of respiratory rate, tidal volume, minute volume, inspiratory time, expiratory time, peak expiratory and inspiratory flow, expiratory time, and airway resistance index.

Compound | antigen-specific T-cell responses in vivo [1] | IFN-γ+ spot count vs restimulation with control peptide CMV pp65 [2] | immunogenicity [3] | pulmonary parameters (plethysmography) [4]
beta-S-ARCA(D1)-hAg-Kozak-KLK2-GS-P2P16-GS-MITD-FI-A30L70 [RBL038.1] | induced antigen-specific T-cell responses | statistically higher | comparable to the results from earlier studies | –
CC(C[N+](C)(C)C)OC(N)=O.[Cl-] (stereo not drawn) [Carbamyl-β-methylcholine chloride] | – | – | – | expected alterations
beta-S-ARCA(D1)-hAg-Kozak-ACPP-GS-P2P16-GS-MITD-FI-A30L70 [RBL040.1] | induced antigen-specific T-cell responses | statistically higher | comparable to the results from earlier studies | –
beta-S-ARCA(D1)-hAg-Kozak-KLK3-GS-P2P16-GS-MITD-FI-A30L70 [RBL039.1] | induced antigen-specific T-cell responses | – | comparable to the results from earlier studies | –
beta-S-ARCA(D1)-hAg-Kozak-sec-GS-NKX31-GS-P2P16-GS-MITD-FI-A30L70 [RBL045.1] | induced antigen-specific T-cell responses | – | comparable to the results from earlier studies | –
beta-S-ARCA(D1)-hAg-Kozak-sec-GS-HOXB13-GS-P2P16-GS-MITD-FI-A30L70 [RBL041.1] | induced antigen-specific T-cell responses | statistically higher | comparable to the results from earlier studies | –

From patent US20230114808A1, “THERAPEUTIC RNA FOR PROSTATE CANCER” (BioNTech SE, priority 2019, published 2023)
